Reference: patent US20080262445A1, “Transdermal Delivery of Hydrophobic Bioactive Agents” (DERMATRENDS, INC., priority 2004, published 2008)
Where two headings read alike, the source gives them in different places.

How the values were obtained:
[1] = assay type: in vitro ADME; settings: human, pH 7.4
Experimental: An in vitro skin permeation study was conducted using one ondansetron transdermal patch. The formulations used to prepare these systems are listed in Table 1, which includes weight and percent weight of each component of the dried formulations. “PVPP’ refers to a commercially available polyvinyl polypyrrolidone powder, which was added in an amount sufficient to balance the liquid nature of other solubizing agents in order to maintain the physical integrity of the patch. Other suitable and generally inert powders that can be used will become apparent to those skilled in the art, given the present description. “Duratak” is a tradename and refers to a commercially available polyisobutylene adhesive liquid available from National Starch and Chemical.
Each formulation was coated on a release liner and dried in an oven at 65° C. for two hours to remove water and other solvents. […]
The in vitro permeation of ondansetron through human cadaver skin from these discs was performed using Franz diffusion cells with a diffusion area of 1 cm^2 and a receiver solution capacity of 8 ml. […] The receiver solution collected was analyzed by HPLC to determine the concentration of ondansetron. The cumulative amount of ondansetron that permeated across the human cadaver skin was calculated using the measured ondansetron concentrations in the receiver solutions, which were plotted versus time and shown in FIG. 1. […]

[2] = Final pH of the patch; assay type: physicochemical; settings: pH of the transdermal patch

In the case of Cc1nccn1CC1CCc2c(c3ccccc3n2C)C1=O (stereo not drawn) [ondansetron, 1,2,3,9-tetrahydro-9-methyl-3-[(2-methyl-1H-imidazol-1-yl)methyl]-4H-carbazol-4-one], the “cumulative amount of ondansetron that permeated through the skin” value ([1]; 24 h) is reported as 0.26 mg/cm^2, the “cumulative amount of ondansetron that permeated through the skin” value ([1]; 51 h) is reported as 0.51 mg/cm^2 and the “final patch pH” value [2] is reported as 4.7.
